Data as given in US10131652B2, “Pyrimidinyloxy benzene derivatives as herbicides” (E. I. DU PONT DE NEMOURS AND COMPANY, priority 2014, dated 2018).

Tests used:
Assay in all cases: Test F pre-/postemergence plant response
Format in all cases: in vivo
Conditions in all cases: scale 0 to 100
[1] = tested on: large (Lg) crabgrass (Digitaria sanguinalis)
Source text: (§1) Seeds of plant species selected from corn (Zea mays), soybean (Glycine max), velvetleaf (Abutilon theophrasti), lambsquarters (Chenopodium album), wild poinsettia (Euphorbia heterophylla), palmer pigweed (Amaranthus palmeri), waterhemp (common waterhemp, Amaranthus rudis), surinam grass (Brachiaria decumbens), large (Lg) crabgrass (Digitaria sanguinalis), Brazilian crabgrass (Digitaria horizontalis), fall panicum (Panicum dichotomiflorum), giant foxtail (Setaria faberii), green foxtail (Setaria viridis), goosegrass (Eleusine indica), johnsongrass (Sorghum halepense), ragweed (common ragweed, Ambrosia elatior), barnyardgrass (Echinochloa crus-galli), sandbur (southern sandbur, Cenchrus echinatus), arrowleaf sida (Sida rhombifolia), Italian ryegrass (Lolium multiflorum), dayflower (Virginia (VA) dayflower, Commelina virginica), field bindweed (Convolvulus arvensis), cocklebur (common cocklebur, Xanthium strumarium), momingglory (Ipomoea coccinea), nightshade (eastern black nightshade, Solanum ptycanthum), kochia (Kochia scoparia), yellow nutsedge (Cyperus esculentus), and hairy beggarticks (Bidens pilosa), were planted into a silt loam soil and treated preemergence with test chemicals formulated in a non-phytotoxic solvent mixture which included a surfactant.
(§2) At the same time, plants from these crop and weed species and also waterhemp_RES1, (ALS & Triazine resistant common waterhemp, Amaranthus rudis), and waterhemp_RES2, (ALS & HPPD resistant common waterhemp, Amaranthus rudis) were treated with postemergence applications of test chemicals formulated in the same manner. Plants ranged in height from 2 to 18 cm for postemergence treatments (1- to 4-leaf stage).
(§3) Treated plants and controls were maintained in a greenhouse for 14 to 21 days, after which time all species were compared to controls and visually evaluated. Plant response ratings, summarized in Table F, are based on a scale of 0 to 100 where 0 is no effect and 100 is complete control. A dash (-) response means no test result.

[2] = tested on: dayflower (Virginia (VA) dayflower, Commelina virginica)
Source text: as §1, §2, §3

[3] = tested on: giant foxtail (Setaria faberii)
Source text: as §1, §2, §3

[4] = tested on: green foxtail (Setaria viridis)
Source text: as §1, §2, §3

soybean (Glycine max) = tested on: soybean (Glycine max)
Source text: as §1, §2, §3

[5] = tested on: lambsquarters (Chenopodium album)
Source text: as §1, §2, §3

[6] = tested on: ragweed (common ragweed, Ambrosia elatior)
Source text: as §1, §2, §3

[7] = tested on: Italian ryegrass (Lolium multiflorum)
Source text: as §1, §2, §3

[8] = tested on: barnyardgrass (Echinochloa crus-galli)
Source text: as §1, §2, §3

[9] = tested on: wild poinsettia (Euphorbia heterophylla)
Source text: as §1, §2, §3

[10] = tested on: waterhemp (common waterhemp, Amaranthus rudis)
Source text: as §1, §2, §3

[11] = tested on: johnsongrass (Sorghum halepense)
Source text: as §1, §2, §3

[12] = tested on: surinam grass (Brachiaria decumbens)
Source text: as §1, §2, §3

kochia (Kochia scoparia) = tested on: kochia (Kochia scoparia)
Source text: as §1, §2, §3

[13] = tested on: morningglory (Ipomoea coccinea)
Source text: as §1, §2, §3

[14] = tested on: yellow nutsedge (Cyperus esculentus)
Source text: as §1, §2, §3

[15] = tested on: field bindweed (Convolvulus arvensis)
Source text: as §1, §2, §3

## Fc1ccc(Oc2ncc(Cl)cn2)c(-c2cc(C(F)F)on2)c1Cl [Compound 96]
[1]; 16 g ai/ha Preemergence
  Plant response rating, Crabgrass, Large: 0
[1]; 31 g ai/ha Preemergence
  Plant response rating, Crabgrass, Large: 30
[1]; 62 g ai/ha Preemergence
  Plant response rating, Crabgrass, Large: 65
[1]; 125 g ai/ha Preemergence
  Plant response rating, Crabgrass, Large: 95
[2]; 16 g ai/ha Postemergence
  Plant response rating, Dayflower, VA: 20
[2]; 16 g ai/ha Preemergence
  Plant response rating, Dayflower, VA: 0
[2]; 31 g ai/ha Postemergence
  Plant response rating, Dayflower, VA: 40
[2]; 31 g ai/ha Preemergence
  Plant response rating, Dayflower, VA: 0
[2]; 62 g ai/ha Postemergence
  Plant response rating, Dayflower, VA: 70
[2]; 62 g ai/ha Preemergence
  Plant response rating, Dayflower, VA: 0
[2]; 125 g ai/ha Postemergence
  Plant response rating, Dayflower, VA: 70
[2]; 125 g ai/ha Preemergence
  Plant response rating, Dayflower, VA: 20
[3]; 16 g ai/ha Preemergence
  Plant response rating, Foxtail, Giant: 0
[3]; 31 g ai/ha Preemergence
  Plant response rating, Foxtail, Giant: 0
[3]; 62 g ai/ha Preemergence
  Plant response rating, Foxtail, Giant: 0
[3]; 125 g ai/ha Preemergence
  Plant response rating, Foxtail, Giant: 20
[4]; 16 g ai/ha Preemergence
  Plant response rating, Foxtail, Green: 25
[4]; 31 g ai/ha Preemergence
  Plant response rating, Foxtail, Green: 30
[4]; 125 g ai/ha Preemergence
  Plant response rating, Foxtail, Green: 25
[4]; Preemergence
  Plant response rating, Foxtail, Green: 35
Soybean (Glycine max); 16 g ai/ha Postemergence
  Plant response rating, Soybean: 40
Soybean (Glycine max); 16 g ai/ha Preemergence
  Plant response rating, Soybean: 0
Soybean (Glycine max); 31 g ai/ha Preemergence
  Plant response rating, Soybean: 0
Soybean (Glycine max); 62 g ai/ha Postemergence
  Plant response rating, Soybean: 40
Soybean (Glycine max); 125 g ai/ha Postemergence
  Plant response rating, Soybean: 80
Soybean (Glycine max); 125 g ai/ha Preemergence
  Plant response rating, Soybean: 0
Soybean (Glycine max); Preemergence
  Plant response rating, Soybean: 0
[5]; 16 g ai/ha Preemergence
  Plant response rating, Lambsquarters: 5
[5]; 31 g ai/ha Preemergence
  Plant response rating, Lambsquarters: 100
[5]; 125 g ai/ha Preemergence
  Plant response rating, Lambsquarters: 100
[5]; Preemergence
  Plant response rating, Lambsquarters: 100
[6]; 16 g ai/ha Postemergence
  Plant response rating, Ragweed: 15
[6]; 16 g ai/ha Preemergence
  Plant response rating, Ragweed: 0
[6]; 31 g ai/ha Postemergence
  Plant response rating, Ragweed: 20
[6]; 31 g ai/ha Preemergence
  Plant response rating, Ragweed: 20
[6]; 62 g ai/ha Postemergence
  Plant response rating, Ragweed: 20
[6]; 125 g ai/ha Postemergence
  Plant response rating, Ragweed: 40
[6]; 125 g ai/ha Preemergence
  Plant response rating, Ragweed: 35
[6]; Preemergence
  Plant response rating, Ragweed: 50
[7]; 16 g ai/ha Postemergence
  Plant response rating, Ryegrass, Italian: 0
[7]; 16 g ai/ha Preemergence
  Plant response rating, Ryegrass, Italian: 0
[7]; 31 g ai/ha Postemergence
  Plant response rating, Ryegrass, Italian: 0
[7]; 31 g ai/ha Preemergence
  Plant response rating, Ryegrass, Italian: 0
[7]; 62 g ai/ha Postemergence
  Plant response rating, Ryegrass, Italian: 0
[7]; 125 g ai/ha Postemergence
  Plant response rating, Ryegrass, Italian: 10
[7]; 125 g ai/ha Preemergence
  Plant response rating, Ryegrass, Italian: 30
[7]; Preemergence
  Plant response rating, Ryegrass, Italian: 30
[8]; 16 g ai/ha Postemergence
  Plant response rating, Barnyardgrass: 0
[8]; 16 g ai/ha Preemergence
  Plant response rating, Barnyardgrass: 0
[8]; 31 g ai/ha Postemergence
  Plant response rating, Barnyardgrass: 10
[8]; 31 g ai/ha Preemergence
  Plant response rating, Barnyardgrass: 0
[8]; 62 g ai/ha Postemergence
  Plant response rating, Barnyardgrass: 20
[8]; 62 g ai/ha Preemergence
  Plant response rating, Barnyardgrass: 0
[8]; 125 g ai/ha Postemergence
  Plant response rating, Barnyardgrass: 20
[8]; 125 g ai/ha Preemergence
  Plant response rating, Barnyardgrass: 0
[9]; 16 g ai/ha Postemergence
  Plant response rating, Poinsettia, Wild: 0
[9]; 16 g ai/ha Preemergence
  Plant response rating, Poinsettia, Wild: 0
[9]; 31 g ai/ha Postemergence
  Plant response rating, Poinsettia, Wild: 30
[9]; 31 g ai/ha Preemergence
  Plant response rating, Poinsettia, Wild: 0
[9]; 62 g ai/ha Postemergence
  Plant response rating, Poinsettia, Wild: 60
[9]; 125 g ai/ha Postemergence
  Plant response rating, Poinsettia, Wild: 50
[9]; 125 g ai/ha Preemergence
  Plant response rating, Poinsettia, Wild: 25
[9]; Preemergence
  Plant response rating, Poinsettia, Wild: 0
[10]; 16 g ai/ha Postemergence
  Plant response rating, Waterhemp: 75
[10]; 16 g ai/ha Preemergence
  Plant response rating, Waterhemp: 40
[10]; 31 g ai/ha Postemergence
  Plant response rating, Waterhemp: 90
[10]; 31 g ai/ha Preemergence
  Plant response rating, Waterhemp: 100
[10]; 62 g ai/ha Postemergence
  Plant response rating, Waterhemp: 100
[10]; 125 g ai/ha Postemergence
  Plant response rating, Waterhemp: 95
[10]; 125 g ai/ha Preemergence
  Plant response rating, Waterhemp: 100
[10]; Preemergence
  Plant response rating, Waterhemp: 100
[11]; 16 g ai/ha Preemergence
  Plant response rating, Johnsongrass: 20
[11]; 31 g ai/ha Preemergence
  Plant response rating, Johnsongrass: 60
[11]; 125 g ai/ha Preemergence
  Plant response rating, Johnsongrass: 98
[11]; Preemergence
  Plant response rating, Johnsongrass: 50
[12]; 16 g ai/ha Preemergence
  Plant response rating, Surinam Grass: 0
[12]; 31 g ai/ha Preemergence
  Plant response rating, Surinam Grass: 0
[12]; 125 g ai/ha Preemergence
  Plant response rating, Surinam Grass: 0
[12]; Preemergence
  Plant response rating, Surinam Grass: 0
Kochia (Kochia scoparia); 16 g ai/ha Postemergence
  Plant response rating, Kochia: 65
Kochia (Kochia scoparia); 16 g ai/ha Preemergence
  Plant response rating, Kochia: 0
Kochia (Kochia scoparia); 31 g ai/ha Postemergence
  Plant response rating, Kochia: 75
Kochia (Kochia scoparia); 31 g ai/ha Preemergence
  Plant response rating, Kochia: 0
Kochia (Kochia scoparia); 62 g ai/ha Postemergence
  Plant response rating, Kochia: 75
Kochia (Kochia scoparia); 125 g ai/ha Postemergence
  Plant response rating, Kochia: 95
Kochia (Kochia scoparia); 125 g ai/ha Preemergence
  Plant response rating, Kochia: 90
Kochia (Kochia scoparia); Preemergence
  Plant response rating, Kochia: 65
[13]; 16 g ai/ha Preemergence
  Plant response rating, Morningglory: 35
[13]; 31 g ai/ha Preemergence
  Plant response rating, Morningglory: 35
[13]; 125 g ai/ha Preemergence
  Plant response rating, Morningglory: 25
[13]; Preemergence
  Plant response rating, Morningglory: 35
[14]; 16 g ai/ha Preemergence
  Plant response rating, Nutsedge, Yellow: 0
[14]; 31 g ai/ha Preemergence
  Plant response rating, Nutsedge, Yellow: 0
[14]; 125 g ai/ha Preemergence
  Plant response rating, Nutsedge, Yellow: 0
[14]; Preemergence
  Plant response rating, Nutsedge, Yellow: 0
[15]; 16 g ai/ha Postemergence
  Plant response rating, Field Bindweed: 5
[15]; 16 g ai/ha Preemergence
  Plant response rating, Field Bindweed: 0
[15]; 31 g ai/ha Postemergence
  Plant response rating, Field Bindweed: 10
[15]; 31 g ai/ha Preemergence
  Plant response rating, Field Bindweed: 0
[15]; 62 g ai/ha Postemergence
  Plant response rating, Field Bindweed: 20
[15]; 62 g ai/ha Preemergence
  Plant response rating, Field Bindweed: 60
[15]; 125 g ai/ha Postemergence
  Plant response rating, Field Bindweed: 50
[15]; 125 g ai/ha Preemergence
  Plant response rating, Field Bindweed: 40
